Assay results published in patent US20100204182A1, “ECTONUCLEOTIDASE INHIBITORS” (RHEINISCHE FRIEDRICH-WILHELMS-UNIVERSITAT BONN, priority 2006, published 2010).

Legend:
human NTPDase8 = target: T1, human NTPDase8 (Homo sapiens, UniProt Q5MY95); experiment: NTPDase inhibition assay by capillary electrophoresis (CE), NTPDase8; type: biochemical; conditions: for inhibition at 1000 µM: human NTPDase8, 1 mM compound, ATP 320 μM; for Ki: read-out: NTPDase8 Ki [μM] ± SEM
T1 sequence (Q5MY95 1-495): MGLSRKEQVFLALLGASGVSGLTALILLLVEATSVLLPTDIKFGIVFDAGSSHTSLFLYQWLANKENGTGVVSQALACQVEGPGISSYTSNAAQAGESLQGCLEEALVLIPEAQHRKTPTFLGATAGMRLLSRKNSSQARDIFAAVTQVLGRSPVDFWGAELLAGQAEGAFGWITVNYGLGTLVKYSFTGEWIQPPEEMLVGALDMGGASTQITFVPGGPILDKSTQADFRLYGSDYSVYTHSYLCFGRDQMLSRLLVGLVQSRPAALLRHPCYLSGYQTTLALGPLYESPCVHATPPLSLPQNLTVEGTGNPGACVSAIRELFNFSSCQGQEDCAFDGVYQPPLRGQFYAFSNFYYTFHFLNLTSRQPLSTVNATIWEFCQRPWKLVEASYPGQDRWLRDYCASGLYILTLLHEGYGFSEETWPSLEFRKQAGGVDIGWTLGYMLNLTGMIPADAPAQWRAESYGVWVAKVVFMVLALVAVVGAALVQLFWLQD
Protocol: (§1) The applied enzyme inhibition assay has been described (Iqbal J, Vollmayer P, Braun N, Zimmermann H, Müller C E. A capillary electrophoresis method for the characterization of ecto-nucleoside triphosphate diphosphohydrolases (NTPDases) and the analysis of inhibitors by in-capillary enzymatic microreaction. Purinergic Signalling 2005, 1, 349-358).
(§2) A. CE instrumentation: All experiments were carried out using a P/ACE MDQ capillary electrophoresis system (Beckman Instruments, Fullerton, Calif., USA) equipped with a UV detection system coupled with a diode-array detector (DAD). Data collection and peak area analysis were performed by the P/ACE MDQ software 32 KARAT obtained from Beckman Coulter. The capillary temperature was kept constant at 25° C. The temperature of the sample storing unit was also adjusted to 25° C. The electrophoretic separations were carried out using an eCAP polyacrylamide-coated fused-silica capillary [(30 cm (20 cm effective length)×50 μm internal diameter (I.D.)×360 μm outside diameter (O.D.), obtained from CS-Chromatographie (Langerwehe, Germany)]. The separation was performed using an applied current of −60 μA and a data acquisition rate of 8 Hz. Analytes were detected using direct UV absorbance at 210 nm. The capillary was conditioned by rinsing with water for 2 min and subsequently with buffer (phosphate 50 mM, pH 6.5) for 1 min. Sample injections were made at the cathodic side of the capillary.
(§3) B. NTPDase inhibition assay by capillary electrophoresis: Enzyme inhibition assays were carried out at 37° C. in a final volume of 100 μl. The reaction mixture contained 320 μM of ATP (substrate) in reaction buffer. The reaction buffer contained 140 mM NaCl, 5 mM KCl, 1 mM MgCl2, 2 mM CaCl2, and 10 mM Hepes, pH 7.4.
(§4) Different concentrations of inhibitors dissolved in DMSO or water (10 μl) were added and the reaction was initiated by the addition of 10 μl of the appropriately diluted recombinant or native human or rat NTPDase enzyme. […] The mixture (final volume 100 μl) was incubated for 15 min and terminated by heating at 99° C. for 4 min. Aliquots of the reaction mixture (50 μl) were then transferred to mini-CE vials and injected into the CE instrument under the conditions described above. 20 μM of UMP was used as internal standard. Inhibition of NTPDase was tested over a range of 6 to 8 concentrations of test compound spanning 3 orders of magnitude to determine K1 values. Each analysis was repeated two times (in triplicates) in two separate experiments. The Cheng-Prusoff equation was used to calculate the K1 values from the IC50 values, determined by the non-linear curve fitting program PRISM® 3.0 (GraphPad, San Diego, Calif., USA). In table 1K, values of selected compounds as inhibitors of human NTPDases are given.

human NTPDase3 = target: T2, human NTPDase3 (Homo sapiens, UniProt O75355); experiment: NTPDase inhibition assay by capillary electrophoresis (CE), NTPDase3; type: biochemical; conditions: ATP 320 μM; for inhibition at 1000 µM: 1 mM compound; for Ki: CE method, Km 75 μM, read-out: NTPDase3 Ki [μM] ± SEM
T2 sequence (O75355 1-529): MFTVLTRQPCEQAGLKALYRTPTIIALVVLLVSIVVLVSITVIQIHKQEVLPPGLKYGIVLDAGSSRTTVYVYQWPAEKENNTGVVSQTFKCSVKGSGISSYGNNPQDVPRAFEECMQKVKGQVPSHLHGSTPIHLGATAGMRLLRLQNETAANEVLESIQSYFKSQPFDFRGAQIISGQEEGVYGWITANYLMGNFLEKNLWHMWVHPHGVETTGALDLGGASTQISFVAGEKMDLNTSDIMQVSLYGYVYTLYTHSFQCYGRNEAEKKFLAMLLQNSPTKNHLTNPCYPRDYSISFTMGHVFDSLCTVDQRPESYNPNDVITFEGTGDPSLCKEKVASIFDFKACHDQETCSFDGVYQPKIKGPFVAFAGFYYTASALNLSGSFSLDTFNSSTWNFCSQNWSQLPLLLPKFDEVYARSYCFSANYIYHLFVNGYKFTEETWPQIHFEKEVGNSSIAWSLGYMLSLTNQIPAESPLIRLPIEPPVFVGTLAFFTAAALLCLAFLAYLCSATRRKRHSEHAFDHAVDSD
Protocol: as §1, §2, §3, §4

hP2Y4 = hP2Y4 (Homo sapiens, UniProt P51582); experiment: Inhibition of UTP binding at hP2Y4; conditions: read-out: hP2Y4 % inhibition of UTP binding at 100 μM, n = 3, mean ± SEM
Protocol: In table 2 inhibition data of selected examples at human P2Y receptor subtypes were collected. It can be seen that no compound was identified that inhibited P2Y receptors at high concentrations of 100 μM and 10 μM, respectively.

hP2Y4, sequence (P51582 whole entry): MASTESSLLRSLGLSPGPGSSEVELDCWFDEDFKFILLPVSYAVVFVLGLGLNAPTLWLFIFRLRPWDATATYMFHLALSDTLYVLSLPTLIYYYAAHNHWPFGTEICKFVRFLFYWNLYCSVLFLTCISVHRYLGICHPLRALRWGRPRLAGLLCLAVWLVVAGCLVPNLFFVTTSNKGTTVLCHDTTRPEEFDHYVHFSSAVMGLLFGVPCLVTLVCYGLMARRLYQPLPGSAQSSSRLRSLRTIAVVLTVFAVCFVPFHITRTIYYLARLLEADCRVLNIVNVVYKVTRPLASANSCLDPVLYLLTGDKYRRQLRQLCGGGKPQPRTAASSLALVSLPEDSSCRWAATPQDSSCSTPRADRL

SMILES	inhibition at 1000 µM (human NTPDase8) [%]	Ki (human NTPDase8) [µM]	inhibition at 1000 µM (human NTPDase3) [%]	Ki (human NTPDase3) [µM]	inhibition at 100 µM (hP2Y4) [%]
CCOP(=O)(Cc1ccc(NC(=O)CNC(=O)[C@H]2O[C@@H](n3ccc(=O)[nH]c3=O)C(O)C2O)cc1)OCC (stereo in doubt) [Compound 2, 4-[2-((2S,3R,4S,5R)-5-(2,4-Dioxo-3,4-dihydropyrimidin-1(2H)-yl)-3,4-dihydroxy-tetrahydrofurane-2-carboxamido)ethaneamido]benzylphosphonic acid diethylester]	0	> 100	0	> 200	–
CCOP(=O)(Cc1ccc(NC(=O)CCNC(=O)[C@H]2O[C@@H](n3ccc(=O)[nH]c3=O)C(O)C2O)cc1)OCC (stereo in doubt) [Compound 3, 4-[3-((2S,3R,4S,5R)-5-(2,4-Dioxo-3,4-dihydropyrimidin-1(2H)-yl)-3,4-di-hydroxy-tetrahydrofurane-2-carboxamido)propaneamido]benzylphosphonic acid diethylester]	0	> 100	40	> 200	14 ± 6
